Reference: patent US10647713B2 (Nimbus Lakshmi, Inc., priority 2016, dated 2020)

Target: human TYK2 (JH2domain-pseudokinase) (Homo sapiens (Human), UniProt P29597)
Assay: TYK2 JH2 Domain Binding Assay (KINOMEscan, DiscoveRx)
Conditions: 11-point dilution, duplicate
Procedure, shortened: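 TYK2 JH2 (G556–D888)–NFkB DBD fusion, DNA-tagged, from HEK293 extracts (<0.1 nM) competed against immobilised biotinylated ligand for 1 h at room temperature, 0.9% DMSO. Bead-retained kinase quantified by qPCR; Kd from 11-point 3-fold series (top 30,000 nM, duplicate), Hill fit with slope −1.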

Chain of human TYK2 (JH2domain-pseudokinase) (P29597 556-888): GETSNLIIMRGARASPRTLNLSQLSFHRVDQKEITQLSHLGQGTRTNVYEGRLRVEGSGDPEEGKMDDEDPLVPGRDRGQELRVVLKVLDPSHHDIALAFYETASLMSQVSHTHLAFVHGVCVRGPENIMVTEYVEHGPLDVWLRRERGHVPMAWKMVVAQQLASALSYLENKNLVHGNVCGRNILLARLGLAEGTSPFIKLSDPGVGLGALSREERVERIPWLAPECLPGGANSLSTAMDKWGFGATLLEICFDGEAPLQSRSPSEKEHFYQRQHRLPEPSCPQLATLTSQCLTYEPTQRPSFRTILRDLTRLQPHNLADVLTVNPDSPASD

| SMILES | Kd |
| --- | --- |
| Cc1nc2c(Nc3ccc(C4=NCC(C)(C)O4)cc3S(C)(=O)=O)cc(NC(=O)C3CC3)nc2[nH]1 [I-284, N-(7-((4-(5,5-dimethyl-4,5-dihydrooxazol-2-yl)-2-(methylsulfonyl)phenyl)amino)-2-methyl-3H-imidazo[4,5-b]pyridin-5-yl)cyclopropanecarboxamide] | 0.5 to 1 nM |
| CP(C)(=O)c1cc(C2CC2)ccc1Nc1cc(NC(=O)C2CC2)nc2[nH]c(C(F)F)nc12 [I-285, N-(7-((4-cyclopropyl-2-(dimethylphosphoryl)phenyl)amino)-2-(difluoromethyl)-3H-imidazo[4,5-b]pyridin-5-yl)cyclopropanecarboxamide] | 0.1 to 0.5 nM |
| Cc1nc2c(Nc3ccc(C4CC4)cc3P(C)(C)=O)cc(NC(=O)C3CC3)nc2[nH]1 [I-286, N-(7-((4-cyclopropyl-2-(dimethylphosphoryl)phenyl)amino)-2-methyl-3H-imidazo[4,5-b]pyridin-5-yl)cyclopropanecarboxamide] | 0.1 to 0.5 nM |
| CS(=O)(=O)c1cc(-c2ccn(C3CC3)n2)ccc1Nc1cc(NC(=O)C2CC2)nc2[nH]c(C(F)F)nc12 [I-287, N-(7-((4-(1-cyclopropyl-1H-pyrazol-3-yl)-2-(methylsulfonyl)phenyl)amino)-2-(difluoromethyl)-3H-imidazo[4,5-b]pyridin-5-yl)cyclopropanecarboxamide] | 0.1 to 0.5 nM |
| Cc1csc(-c2ccc(Nc3cc(NC(=O)C4CC4)nc4[nH]c(C(F)F)nc34)c(S(C)(=O)=O)c2)n1 [I-288, N-(2-(difluoromethyl)-7-((2-(methylsulfonyl)-4-(4-methylthiazol-2-yl)phenyl)amino)-3H-imidazo[4,5-b]pyridin-5-yl)cyclopropanecarboxamide] | 0.1 to 0.5 nM |
| Cc1csc(-c2ccc(Nc3cc(NC(=O)C4CC4)nc4[nH]c(C)nc34)c(S(C)(=O)=O)c2)n1 [I-289, N-(2-methyl-7-((2-(methylsulfonyl)-4-(4-methylthiazol-2-yl)phenyl)amino)-3H-imidazo[4,5-b]pyridin-5-yl)cyclopropanecarboxamide] | 0.1 to 0.5 nM |
| Cc1cc(-c2ccc(Nc3cc(Nc4cccc(C(F)(F)F)n4)nc4[nH]c(C(F)F)nc34)c(S(C)(=O)=O)c2)nn1C [I-290, 2-(difluoromethyl)-N7-(4-(1,5-dimethyl-1H-pyrazol-3-yl)-2-(methylsulfonyl)phenyl)-N5-(6-(trifluoromethyl)pyridin-2-yl)-3H-imidazo[4,5-b]pyridine-5,7-diamine] | 0.5 to 1 nM |
| Cc1nc2c(Nc3ccc([C@@H]4CCOC4)cc3S(C)(=O)=O)cc(NC(=O)C3CC3)nc2[nH]1 [I-291, (S)—N-(2-methyl-7-((2-(methylsulfonyl)-4-(tetrahydrofuran-3-yl)phenyl)amino)-3H-imidazo[4,5-b]pyridin-5-yl)cyclopropanecarboxamide] | 0.5 to 1 nM |
| Cc1nc2c(Nc3ccc([C@H]4CCOC4)cc3S(C)(=O)=O)cc(NC(=O)C3CC3)nc2[nH]1 [I-292, (R)—N-(2-methyl-7-((2-(methylsulfonyl)-4-(tetrahydrofuran-3-yl)phenyl)amino)-3H-imidazo[4,5-b]pyridin-5-yl)cyclopropanecarboxamide] | 1 to 10 nM |
| CS(=O)(=O)c1cc(C2CCOCC2)ccc1Nc1cc(NC(=O)[C@@H]2CC2(F)F)nc2[nH]c(C(F)F)nc12 [I-293, (S)—N-(2-(difluoromethyl)-7-((2-(methylsulfonyl)-4-(tetrahydro-2H-pyran-4-yl)phenyl)amino)-3H-imidazo[4,5-b]pyridin-5-yl)-2,2-difluorocyclopropane-1-carboxamide] | 1 to 10 nM |
| CS(=O)(=O)c1cc(C2CCOCC2)ccc1Nc1cc(NC(=O)[C@H]2CC2(F)F)nc2[nH]c(C(F)F)nc12 [I-294, (R)—N-(2-(difluoromethyl)-7-((2-(methylsulfonyl)-4-(tetrahydro-2H-pyran-4-yl)phenyl)amino)-3H-imidazo[4,5-b]pyridin-5-yl)-2,2-difluorocyclopropane-1-carboxamide] | 1 to 10 nM |
| COCCNc1ccc(Nc2cc(Nc3ccccc3N(C)S(C)(=O)=O)c3nc(C(F)F)[nH]c3n2)nc1C#N [I-295, N-(2-((5-((6-cyano-5-((2-methoxyethyl)amino)pyridin-2-yl)amino)-2-(difluoromethyl)-3H-imidazo[4,5-b]pyridin-7-yl)amino)phenyl)-N-methylmethane sulfonamide] | 0.1 to 0.5 nM |
| COc1c(Nc2cc(NC(=O)[C@@H]3C[C@@H]3F)nc3[nH]c(C(F)F)nc23)cccc1-c1ncn(C)n1 [I-296, (1S,2S)—N-(2-(difluoromethyl)-7-((2-methoxy-3-(1-methyl-1H-1,2,4-triazol-3-yl)phenyl)amino)-3H-imidazo[4,5-b]pyridin-5-yl)-2-fluorocyclopropane-1-carboxamide] | 0.5 to 1 nM |
| C[S@+]([O-])c1ccccc1Nc1cc(NC(=O)C2CC2)nc2[nH]c(C(F)F)nc12 [I-297, (S)—N-(2-(difluoromethyl)-7-((2-(methylsulfinyl)phenyl)amino)-3H-imidazo[4,5-b]pyridin-5-yl)cyclopropanecarboxamide] | 0.5 to 1 nM |
| C[S@@+]([O-])c1ccccc1Nc1cc(NC(=O)C2CC2)nc2[nH]c(C(F)F)nc12 [I-298, (R)—N-(2-(difluoromethyl)-7-((2-(methylsulfinyl)phenyl)amino)-3H-imidazo[4,5-b]pyridin-5-yl)cyclopropanecarboxamide] | > 10 nM |
| Cc1nc2c(Nc3ccc(-c4cc(C)n(C)n4)cc3S(C)(=O)=O)cc(Nc3cccc(C(F)(F)F)n3)nc2[nH]1 [I-299, N7-(4-(1,5-dimethyl-1H-pyrazol-3-yl)-2-(methylsulfonyl)phenyl)-2-methyl-N5-(6-(trifluoromethyl)pyridin-2-yl)-3H-imidazo[4,5-b]pyridine-5,7-diamine] | 0.5 to 1 nM |
| Cc1ncc(Nc2cc(Nc3ccc(-c4cc(C)n(C)n4)cc3S(C)(=O)=O)c3nc(C(F)F)[nH]c3n2)nc1C [I-300, 2-(difluoromethyl)-N7-(4-(1,5-dimethyl-1H-pyrazol-3-yl)-2-(methylsulfonyl)phenyl)-N5-(5,6-dimethylpyrazin-2-yl)-3H-imidazo[4,5-b]pyridine-5,7-diamine] | 0.1 to 0.5 nM |
| Cn1cnc(-c2ccc(Nc3cc(NC(=O)[C@H]4C[C@H]4F)nc4[nH]c(C(F)F)nc34)c(S(C)(=O)=O)c2)c1 [I-301, (1R,2R)—N-(2-(difluoromethyl)-7-((4-(1-methyl-1H-imidazol-4-yl)-2-(methylsulfonyl)phenyl)amino)-3H-imidazo[4,5-b]pyridin-5-yl)-2-fluorocyclopropane-1-carboxamide] | 0.1 to 0.5 nM |
| Cc1c(-c2ccc(Nc3cc(Nc4cccc(C#N)n4)nc4[nH]c(C(F)F)nc34)c(S(C)(=O)=O)c2)cnn1C [I-302, 6-((2-(difluoromethyl)-7-((4-(1,5-dimethyl-1H-pyrazol-4-yl)-2-(methylsulfonyl)phenyl)amino)-3H-imidazo[4,5-b]pyridin-5-yl)amino)picolinonitrile] | 0.1 to 0.5 nM |
| Cc1ccc(Nc2cc(Nc3ccc(-c4cc(C)n(C)n4)cc3S(C)(=O)=O)c3nc(C(F)F)[nH]c3n2)nc1C#N [I-303, 6-((2-(difluoromethyl)-7-((4-(1,5-dimethyl-1H-pyrazol-3-yl)-2-(methylsulfonyl)phenyl)amino)-3H-imidazo[4,5-b]pyridin-5-yl)amino)-3-methylpicolinonitrile] | 0.5 to 1 nM |
| Cc1cnc(-c2ccc(Nc3cc(NC(=O)C4CC4)nc4[nH]c(C(F)F)nc34)c(S(C)(=O)=O)c2)s1 [I-304, N-(2-(difluoromethyl)-7-((2-(methylsulfonyl)-4-(5-methylthiazol-2-yl)phenyl)amino)-3H-imidazo[4,5-b]pyridin-5-yl)cyclopropanecarboxamide] | 0.5 to 1 nM |
| Cc1nc2c(Nc3ccc(-c4ncc(C)s4)cc3S(C)(=O)=O)cc(NC(=O)C3CC3)nc2[nH]1 [I-305, N-(2-methyl-7-((2-(methylsulfonyl)-4-(5-methylthiazol-2-yl)phenyl)amino)-3H-imidazo[4,5-b]pyridin-5-yl)cyclopropanecarboxamide] | 0.1 to 0.5 nM |
| CS(=O)(=O)c1cc([C@H]2CCCO2)ccc1Nc1cc(NC(=O)[C@@H]2CC2(F)F)nc2[nH]c(C(F)F)nc12 [I-306, (S)—N-(2-(difluoromethyl)-7-((2-(methylsulfonyl)-4-((R)-tetrahydrofuran-2-yl)phenyl)amino)-3H-imidazo[4,5-b]pyridin-5-yl)-2,2-difluorocyclopropane-1-carboxamide] | 0.5 to 1 nM |
| CS(=O)(=O)c1cc([C@H]2CCCO2)ccc1Nc1cc(NC(=O)[C@H]2CC2(F)F)nc2[nH]c(C(F)F)nc12 [I-307, (R)—N-(2-(difluoromethyl)-7-((2-(methylsulfonyl)-4-((R)-tetrahydrofuran-2-yl)phenyl)amino)-3H-imidazo[4,5-b]pyridin-5-yl)-2,2-difluorocyclopropane-1-carboxamide] | 1 to 10 nM |
| Cc1c(-c2ccc(Nc3cc(NC(=O)[C@@H]4CC4(F)F)nc4[nH]c(C(F)F)nc34)c(S(C)(=O)=O)c2)cnn1C [I-308, (S)—N-(2-(difluoromethyl)-7-((4-(1,5-dimethyl-1H-pyrazol-4-yl)-2-(methylsulfonyl)phenyl)amino)-3H-imidazo[4,5-b]pyridin-5-yl)-2,2-difluorocyclopropane-1-carboxamide] | 0.1 to 0.5 nM |
| Cc1c(-c2ccc(Nc3cc(NC(=O)[C@H]4CC4(F)F)nc4[nH]c(C(F)F)nc34)c(S(C)(=O)=O)c2)cnn1C [I-309, (R)—N-(2-(difluoromethyl)-7-((4-(1,5-dimethyl-1H-pyrazol-4-yl)-2-(methylsulfonyl)phenyl)amino)-3H-imidazo[4,5-b]pyridin-5-yl)-2,2-difluorocyclopropane-1-carboxamide] | 0.1 to 0.5 nM |
| CS(=O)(=O)c1cc([C@H]2CCCOC2)ccc1Nc1cc(NC(=O)[C@H]2CC2(F)F)nc2[nH]c(C(F)F)nc12 [I-310, (R)—N-(2-(difluoromethyl)-7-((2-(methylsulfonyl)-4-((R)-tetrahydro-2H-pyran-3-yl)phenyl)amino)-3H-imidazo[4,5-b]pyridin-5-yl)-2,2-difluorocyclopropane-1-carboxamide] | 0.5 to 1 nM |
